Measurements: US20110053996A1, “Use of phenyltriazoles for controlling insects and spider mites by watering, droplet application or dip application or by treating seed” (Bayer CropScience AG, priority 2009, published 2011)

What was measured:
Liriomyza trifolii = Liriomyza trifolii test on bush beans; drench application; format: in vivo; settings: bush bean plants, 0.5 mg of ai/plant, 14 days after infestation
Description: (§1) To produce a suitable preparation of active compound, 1 part by weight of active compound is mixed with the stated amounts of solvent and emulsifier, and the concentrate is diluted with water to the desired concentration.
Bush bean plants (Phaseolus vulgaris) are watered with the respective product solution. The stated concentration refers to the amount of active compound per plant. After about 1 week, the treated plants are infested with the leaf-mining fly (Liriomyza trifolii).
After 2 weeks, the effect in % is determined. 100% means that all of the leaf-mining flies have been killed; 0% means that none of the leaf-mining flies have been killed.

Tetranychus urticae = Tetranychus urticae test on bush beans; drench application; format: in vivo; settings: bush bean plants, 0.25 mg of ai/plant, 14 days after infestation
Description: as §1
Bush bean plants (Phaseolus vulgaris) are watered with the respective product solution. The stated concentration refers to the amount of active compound per plant. After about 1 week, the treated plants are infested with the greenhouse red spider mite (Tetranychus urticae).
After 2 weeks, the effect in % is determined. 100% means that all of the spider mites have been killed; 0% means that none of the spider mites have been killed.

Structure (SMILES): Cc1cc(F)c(-n2nc(C(F)(F)F)nc2N)cc1[S+]([O-])CC(F)(F)F (centres unmarked) [(I-4)]
- % Activity (according to Abbott) (Liriomyza trifolii): 100%
- % Activity (according to Abbott) (Tetranychus urticae): 100%
